Eight compounds from ChEMBL document CHEMBL1149052, “Pentacyclic triterpenes derived from Maprounea africana are potent inhibitors of HIV-1 reverse transcriptase” (J Nat Prod, 1994) can be followed below.

Molecules are shown by their SMILES. A value given as a limit tells only on which side of the number the result lay.

Assay [1] in a line: Inhibition of HIV2 reverse transcriptase. More on the design: species or system Human immunodeficiency virus 2.
For assay [2], the target named is Human immunodeficiency virus type 1 reverse transcriptase (Human immunodeficiency virus 1, UniProt Q72547). Put plainly: Inhibition of HIV1 reverse transcriptase.

The term IC50 denotes the concentration that gives 50% inhibition. A low value points to inhibition by little substance. As to `CC1(C)CC[C@]2(C(=O)O)CC=C3[C@]4(C)CC[C@H]5C(C)(C)[C@@H](OC(=O)c6ccc(O)cc6)C[C@@H](O)[C@]5(C)[C@H]4CC[C@@]3(C)[C@@H]2C1`, the IC50 in assay [1] was found to be 59 µM; in assay [2], 3.7 µM.

Regarding `CC1(C)CC[C@]2(C(=O)O)CC=C3[C@]4(C)CC[C@H]5C(C)(C)[C@@H](O)[C@H](O)C[C@]5(C)[C@H]4CC[C@@]3(C)[C@@H]2C1`, the IC50 came out at 56.7 µM in assay [1] and 3.4 µM in assay [2].

Consider `CC[C@H]1CN2CCc3cc(OC)c(OC)cc3[C@@H]2C[C@@H]1CC1=NCCc2cc(OC)c(OC)cc21`, for which half-maximal inhibition in assay [2] (IC50) required 14 µM.

For the compound `CC1(C)CC[C@]2(C(=O)O)CC=C3[C@]4(C)CC[C@H]5C(C)(C)[C@@H](OC(=O)c6ccc(O)cc6)[C@H](OC(=O)c6ccc(O)cc6)C[C@]5(C)[C@H]4CC[C@@]3(C)[C@@H]2C1`, the IC50 in assay [1] was 28.9 µM; in assay [2] it was 3.7 µM.

In the case of `CC1(C)CC[C@]2(C(=O)O)CC=C3[C@]4(C)CC[C@H]5C(C)(C)[C@@H](O)C[C@@H](O)[C@]5(C)[C@H]4CC[C@@]3(C)[C@@H]2C1`, the results for the IC50 in assay [1] and in assay [2] were 53.1 µM and 4.9 µM, respectively.

For `CC(=O)O[C@H]1CC[C@]2(C)[C@H]3CC[C@]4(C)C(=CC[C@@]5(C(=O)O)CCC(C)(C)C[C@H]54)[C@]3(C)CC[C@H]2C1(C)C` [ACETYL ALEURITOLIC ACID], the IC50 in assay [1] is greater than 200 µM; in assay [2], 136 µM.

For the compound `CC1(C)CC[C@]2(C(=O)O)CC=C3[C@]4(C)CC[C@H]5C(C)(C)[C@@H](O)CC[C@]5(C)[C@H]4CC[C@@]3(C)[C@@H]2C1` [ALEURITOLIC ACID], the IC50 is 78.7 µM in assay [1] and 24.9 µM in assay [2].

Turning to `COc1cc2c(ccc3c4cc(OC)c(OC)cc4c[n+](C)c23)cc1O` [FAGARONINE], inhibition in assay [2] was half-maximal at 13 µM (IC50).
